The record followed here is article PMC10899635, “Q586B2 is a crucial virulence factor during the early stages of Trypanosoma brucei infection that is conserved amongst trypanosomatids” (Nature Communications, 2024).

For one experiment, the target named is T1, rmMIF (Mus musculus, UniProt P34884).
T1 construct: gene Mif; commercial recombinant (R&D systems); trimer
The experiment in a line: dopachrome methyl ester tautomerase assay, OD475 nm. It is filed as biochemical. The conditions noted are these: 83.3 nM protein preincubated 1 h at 37 °C with 10 µM ISO-1; pH 6.0, 25 °C.

Another experiment addresses T2, Q586B2 (Trypanosoma brucei, UniProt Q586B2).
T2 construct: gene Tb06.4F7.140; full length, 115 aa, 13 kDa; N-terminal His6- and FLAG-tag (removable); codon-optimized, E. coli WK6
The experiment is described as above. It is filed as biochemical. Conditions: 83.3 nM protein; 50 mM potassium phosphate, 1 mM EDTA, pH 6.0, 25 °C.

T2 sequence (Q586B2 entry or part of it): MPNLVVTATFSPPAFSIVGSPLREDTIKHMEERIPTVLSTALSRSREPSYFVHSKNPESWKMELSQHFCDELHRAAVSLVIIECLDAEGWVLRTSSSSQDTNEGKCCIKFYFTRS
T1 sequence (P34884 2-115): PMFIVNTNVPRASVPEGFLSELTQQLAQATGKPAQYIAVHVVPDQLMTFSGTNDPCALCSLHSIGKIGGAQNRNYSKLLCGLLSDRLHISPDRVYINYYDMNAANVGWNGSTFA

In the case of `COC(=O)CC1CC(c2ccc(O)cc2)=NO1` (centres unmarked) [ISO-1], the “% tautomerase activity with 10 μM ISO-1” value at rmMIF is “contrast to MIF, the Q586B2 tautomerase activity was not inhibited by the small molecule ISO-1”.

In the case of `COC(=O)[C@@H]1CC2=CC(=O)C(=O)C=C2N1` [dopachrome methyl ester], the “% tautomerase activity of rmMIF” value at Q586B2 is on record as “Q586B2 indeed exhibited a moderate tautomerase activity”.
